Measurements published in ChEMBL document CHEMBL1127905, “Design and synthesis of a prototype model antagonist of tachykinin NK-2 receptor” (Bioorg Med Chem Lett, 1994).

Molecular target: T1, Substance-K receptor (Homo sapiens) (UniProt P21452)
T1 sequence (whole entry): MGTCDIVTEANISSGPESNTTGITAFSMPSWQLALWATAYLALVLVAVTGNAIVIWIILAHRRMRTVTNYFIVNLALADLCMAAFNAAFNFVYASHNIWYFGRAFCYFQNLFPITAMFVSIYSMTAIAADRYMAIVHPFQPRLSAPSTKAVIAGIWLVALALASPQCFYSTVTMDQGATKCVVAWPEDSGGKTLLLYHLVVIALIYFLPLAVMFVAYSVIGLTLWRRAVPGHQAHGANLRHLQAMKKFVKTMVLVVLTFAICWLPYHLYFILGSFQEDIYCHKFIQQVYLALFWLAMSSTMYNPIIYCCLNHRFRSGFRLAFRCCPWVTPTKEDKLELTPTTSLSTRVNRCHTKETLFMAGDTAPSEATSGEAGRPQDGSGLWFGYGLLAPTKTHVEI
Experiment: Compound was evaluated for binding affinity to human recombinant Tachykinin receptor 2

Compound `O=C(Cc1c[nH]c2ccccc12)N[C@@H]1C(=O)N2[C@H](CC[C@H]2C(=O)NCc2ccccc2)C[C@H]1Cc1ccccc1` has an Activity of 3 µM.
